According to ChEMBL document CHEMBL3885881, “DrugMatrix”:

Organism: Rattus norvegicus
Assay type: toxicity, organism-based, Sprague-Dawley
Details: in vivo, 24 h, time 1 day; for ABSOLUTE BASOPHIL / ABSOLUTE EOSINOPHIL / ABSOLUTE LYMPHOCYTE / ABSOLUTE MONOCYTE / BASOPHIL / EOSINOPHIL / ERYTHROCYTE COUNT / HEMATOCRIT / HEMOGLOBIN / LEUKOCYTE COUNT / LYMPHOCYTE / MEAN CORPUSCULAR HEMOGLOBIN / MEAN CORPUSCULAR HEMOGLOBIN CONCENTRATION / MEAN CORPUSCULAR VOLUME / MONOCYTE / NEUTROPHIL / PLATELET COUNT / ABSOLUTE SEGMENTED NEUTROPHIL / NUCLEATED RED BLOOD CELLS: tissue Blood; for ALANINE AMINOTRANSFERASE / ALBUMIN / ALKALINE PHOSPHATASE / ASPARTATE AMINOTRANSFERASE / BLOOD UREA NITROGEN / CARBON DIOXIDE / CHLORIDE / CHOLESTEROL / CREATINE PHOSPHOKINASE / CREATININE / GLUCOSE / LACTATE DEHYDROGENASE / LIPASE / PHOSPHORUS / POTASSIUM / SODIUM / TOTAL BILIRUBIN / TOTAL PROTEIN / URIC ACID: tissue Plasma
[1] = po, 0 mg/kg, vehicle control, route oral GAVAGE, dose level Control, vehicle 100 % WATER
[2] = po, 120 mg/kg, route oral GAVAGE, dose level High, vehicle 100 % WATER
[3] = sc, 0 mg/kg, vehicle control, route mini-PUMP - SUBCUTANEOUS, dose level Control, vehicle 100 % SALINE
[4] = sc, […], route mini-PUMP - SUBCUTANEOUS, dose 0.44 mg/Kg, dose level High, vehicle 100 % SALINE

Description: DrugMatrix - Regimen: Single

SMILES: COCCc1ccc(OCC(O)CNC(C)C)cc1 (centres undefined) [METOPROLOL]
- ABSOLUTE BASOPHIL [1]: 63.3 cells/µL
- ABSOLUTE EOSINOPHIL [1]: 66.7 cells/µL
- ABSOLUTE LYMPHOCYTE [1]: 8010 cells/µL
- ABSOLUTE MONOCYTE [1]: 240 cells/µL
- BASOPHIL [1]: 0.6%
- EOSINOPHIL [1]: 0.6%
- ERYTHROCYTE COUNT [1]: 6.25 x10E6/uL
- HEMATOCRIT [1]: 40.47%
- HEMOGLOBIN [1]: 12.83 G/DL
- LEUKOCYTE COUNT [1]: 10.19 x10E3/uL
- LYMPHOCYTE [1]: 78.7%
- MEAN CORPUSCULAR HEMOGLOBIN [1]: 20.53 pg
- MEAN CORPUSCULAR HEMOGLOBIN CONCENTRATION [1]: 31.73 G/DL
- MEAN CORPUSCULAR VOLUME [1]: 64.67 fL
- MONOCYTE [1]: 2.5%
- NEUTROPHIL [1]: 17.07%
- PLATELET COUNT [1]: 1297 x10E3/uL
- ALANINE AMINOTRANSFERASE [1]: 32.67 u/L
- ALBUMIN [1]: 3.9 G/DL
- ALKALINE PHOSPHATASE [1]: 374 u/L
- ASPARTATE AMINOTRANSFERASE [1]: 64.33 u/L
- BLOOD UREA NITROGEN [1]: 14 mg/dL
- CARBON DIOXIDE [1]: 45.67 mmol/L
- CHLORIDE [1]: 103 MEQ/L
- CHOLESTEROL [1]: 82.67 mg/dL
- CREATINE PHOSPHOKINASE [1]: 216.33 u/L
- CREATININE [1]: 0.17 mg/dL
- GLUCOSE [1]: 161.33 mg/dL
- LACTATE DEHYDROGENASE [1]: 103.67 u/L
- LIPASE [1]: 8.67 u/L
- PHOSPHORUS [1]: 11 mg/dL
- POTASSIUM [1]: 6.83 MEQ/L
- SODIUM [1]: 144.67 MEQ/L
- TOTAL BILIRUBIN [1]: 0.27 mg/dL
- TOTAL PROTEIN [1]: 6.27 G/DL
- URIC ACID [1]: 0.67 mg/dL
- ABSOLUTE BASOPHIL [2]: 66.7 cells/µL
- ABSOLUTE EOSINOPHIL [2]: 90 cells/µL
- ABSOLUTE LYMPHOCYTE [2]: 8230 cells/µL
- ABSOLUTE MONOCYTE [2]: 290 cells/µL
- BASOPHIL [2]: 0.6%
- EOSINOPHIL [2]: 0.9%
- ERYTHROCYTE COUNT [2]: 6.76 x10E6/uL
- HEMATOCRIT [2]: 44.17%
- HEMOGLOBIN [2]: 14.1 G/DL
- LEUKOCYTE COUNT [2]: 10.39 x10E3/uL
- LYMPHOCYTE [2]: 79.03%
- MEAN CORPUSCULAR HEMOGLOBIN [2]: 20.87 pg
- MEAN CORPUSCULAR HEMOGLOBIN CONCENTRATION [2]: 31.9 G/DL
- MEAN CORPUSCULAR VOLUME [2]: 65.33 fL
- MONOCYTE [2]: 2.8%
- NEUTROPHIL [2]: 16.1%
- PLATELET COUNT [2]: 1170 x10E3/uL
- ALANINE AMINOTRANSFERASE [2]: 33.33 u/L
- ALBUMIN [2]: 3.83 G/DL
- ALKALINE PHOSPHATASE [2]: 431 u/L
- ASPARTATE AMINOTRANSFERASE [2]: 59 u/L
- BLOOD UREA NITROGEN [2]: 13 mg/dL
- CARBON DIOXIDE [2]: 38.67 mmol/L
- CHLORIDE [2]: 103.33 MEQ/L
- CHOLESTEROL [2]: 74 mg/dL
- CREATINE PHOSPHOKINASE [2]: 229.33 u/L
- CREATININE [2]: 0.3 mg/dL
- GLUCOSE [2]: 178 mg/dL
- LACTATE DEHYDROGENASE [2]: 77.67 u/L
- LIPASE [2]: 8 u/L
- PHOSPHORUS [2]: 12.3 mg/dL
- POTASSIUM [2]: 6.47 MEQ/L
- SODIUM [2]: 144 MEQ/L
- TOTAL BILIRUBIN [2]: 0.23 mg/dL
- TOTAL PROTEIN [2]: 6.2 G/DL
- URIC ACID [2]: 0.9 mg/dL

SMILES: CNC[C@H](O)c1cccc(O)c1 [PHENYLEPHRINE]
- ABSOLUTE EOSINOPHIL [3]: 26.17 CELLS/uL
- ABSOLUTE LYMPHOCYTE [3]: 10985.83 CELLS/uL
- ABSOLUTE MONOCYTE [3]: 234.5 CELLS/uL
- ABSOLUTE SEGMENTED NEUTROPHIL [3]: 1753.5 CELLS/uL
- BASOPHIL [3]: 0%
- EOSINOPHIL [3]: 0.17%
- ERYTHROCYTE COUNT [3]: 5.64 x10E6/uL
- HEMATOCRIT [3]: 34.52%
- HEMOGLOBIN [3]: 12.68 G/DL
- LEUKOCYTE COUNT [3]: 13 x10E3/uL
- LYMPHOCYTE [3]: 84.5%
- MEAN CORPUSCULAR HEMOGLOBIN [3]: 22.5 pg
- MEAN CORPUSCULAR HEMOGLOBIN CONCENTRATION [3]: 36.78 G/DL
- MEAN CORPUSCULAR VOLUME [3]: 61.18 fL
- MONOCYTE [3]: 1.83%
- NEUTROPHIL [3]: 13.5%
- NUCLEATED RED BLOOD CELLS [3]: 0.17 /100WBC
- PLATELET COUNT [3]: 679.17 x10E3/uL
- ALANINE AMINOTRANSFERASE [3]: 42.67 u/L
- ALBUMIN [3]: 3.77 G/DL
- ALKALINE PHOSPHATASE [3]: 291.17 u/L
- ASPARTATE AMINOTRANSFERASE [3]: 74.5 u/L
- BLOOD UREA NITROGEN [3]: 15.33 mg/dL
- CARBON DIOXIDE [3]: 30 mmol/L
- CHLORIDE [3]: 100.83 MEQ/L
- CHOLESTEROL [3]: 65.33 mg/dL
- CREATININE [3]: 0.15 mg/dL
- GLUCOSE [3]: 179.83 mg/dL
- LACTATE DEHYDROGENASE [3]: 162.67 u/L
- LIPASE [3]: 8.5 u/L
- PHOSPHORUS [3]: 12.2 mg/dL
- POTASSIUM [3]: 5.73 MEQ/L
- SODIUM [3]: 144.7 MEQ/L
- TOTAL BILIRUBIN [3]: 0.15 mg/dL
- TOTAL PROTEIN [3]: 5.87 G/DL
- URIC ACID [3]: 1.93 mg/dL
- ABSOLUTE EOSINOPHIL [4]: 0 CELLS/uL
- ABSOLUTE LYMPHOCYTE [4]: 12992 CELLS/uL
- ABSOLUTE MONOCYTE [4]: 416.33 CELLS/uL
- ABSOLUTE SEGMENTED NEUTROPHIL [4]: 3025 CELLS/uL
- BASOPHIL [4]: 0%
- EOSINOPHIL [4]: 0%
- ERYTHROCYTE COUNT [4]: 6.07 x10E6/uL
- HEMATOCRIT [4]: 36.37%
- HEMOGLOBIN [4]: 13.2 G/DL
- LEUKOCYTE COUNT [4]: 16.43 x10E3/uL
- LYMPHOCYTE [4]: 79%
- MEAN CORPUSCULAR HEMOGLOBIN [4]: 21.77 pg
- MEAN CORPUSCULAR HEMOGLOBIN CONCENTRATION [4]: 36.27 G/DL
- MEAN CORPUSCULAR VOLUME [4]: 59.93 fL
- MONOCYTE [4]: 2.33%
- NEUTROPHIL [4]: 18.67%
- NUCLEATED RED BLOOD CELLS [4]: 0 /100WBC
- PLATELET COUNT [4]: 1118.67 x10E3/uL
- ALANINE AMINOTRANSFERASE [4]: 37.33 u/L
- ALBUMIN [4]: 3.83 G/DL
- ALKALINE PHOSPHATASE [4]: 259 u/L
- ASPARTATE AMINOTRANSFERASE [4]: 64.33 u/L
- BLOOD UREA NITROGEN [4]: 11.67 mg/dL
- CARBON DIOXIDE [4]: 30 mmol/L
- CHLORIDE [4]: 101.67 MEQ/L
- CHOLESTEROL [4]: 75.67 mg/dL
- CREATININE [4]: 0.16 mg/dL
- GLUCOSE [4]: 171.33 mg/dL
- LACTATE DEHYDROGENASE [4]: 133.67 u/L
- LIPASE [4]: 9 u/L
- PHOSPHORUS [4]: 14.13 mg/dL
- POTASSIUM [4]: 6.67 MEQ/L
- SODIUM [4]: 146.87 MEQ/L
- TOTAL BILIRUBIN [4]: 0.1 mg/dL
- TOTAL PROTEIN [4]: 5.97 G/DL
- URIC ACID [4]: 3.6 mg/dL
